Test results as given in patent US20210395310A1, “Cyclic Peptide” (The University of Tokyo, priority 2018, published 2021).
Positions of bridges follow the written chain, without caps; N, C: chain ends. Non-standard residues stand in square brackets, D forms with d. Residues, ends and D or L forms follow the SMILES beside them. PEG12 = NCCOCCOCCOCCOCCOCCOCCOCCOCCOCCOCCOCCOCCC(=O)O; βAla = NCCC(=O)O

Columns and labels:
scHGF(Xa) = target: T1, scHGF(Xa) (Homo sapiens, UniProt P14210, K491I/L493G/Q492E); test: Binding of scHGF(Xa) to immobilized HiP8-PEG11 by SPR (Biacore 3000); conditions: immobilized HiP-8-PEG11
T1 construct: The full-length HGF protein and N-terminally truncated HGF protein; hexahistidine (with TEV site) (C, cleaved yes); made in house; host or cells: Expi293F cells
T1 sequence (P14210 32-723 isoform P14210-3 K486I/Q487E/L488G): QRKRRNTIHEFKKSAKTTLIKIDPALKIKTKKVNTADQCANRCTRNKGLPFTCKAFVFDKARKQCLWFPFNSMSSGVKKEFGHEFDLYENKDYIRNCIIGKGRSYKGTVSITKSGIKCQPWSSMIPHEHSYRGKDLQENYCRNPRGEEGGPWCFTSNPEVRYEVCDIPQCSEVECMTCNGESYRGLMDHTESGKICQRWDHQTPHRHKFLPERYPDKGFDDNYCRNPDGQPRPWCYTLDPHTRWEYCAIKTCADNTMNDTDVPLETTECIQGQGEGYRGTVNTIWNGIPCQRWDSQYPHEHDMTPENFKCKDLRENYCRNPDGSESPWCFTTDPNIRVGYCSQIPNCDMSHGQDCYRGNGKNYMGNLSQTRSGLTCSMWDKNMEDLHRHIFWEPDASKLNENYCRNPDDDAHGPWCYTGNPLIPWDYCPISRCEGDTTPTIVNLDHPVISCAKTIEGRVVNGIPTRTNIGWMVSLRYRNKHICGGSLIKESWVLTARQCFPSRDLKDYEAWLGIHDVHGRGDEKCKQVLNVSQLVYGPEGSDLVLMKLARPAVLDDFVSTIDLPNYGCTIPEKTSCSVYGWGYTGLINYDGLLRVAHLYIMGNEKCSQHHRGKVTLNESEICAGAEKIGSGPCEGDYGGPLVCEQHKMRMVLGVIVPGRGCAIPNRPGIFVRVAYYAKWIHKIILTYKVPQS
Method: (§1) Binding of HGF and HGF fragments to immobilized HiP8-PEG11 was measured by surface plasmon resonance (SPR) with Biacore 3000 (product of Ge Flealthcare). Hip8-PEG11-biotin was supported on the surface of a streptavidin-coated chip at 10 RU (resonance unit). The test was performed by injecting HGF and HGF fragments with varying concentrations into 10 mM TBS (pH 7.4), 150 mM NaCl, and 0.05% Tween 20 (v/v) at a flow rate of 30 μl/min. Binding affinity was analyzed from a fitting model of steady-state affinity by multi-cycle kinetics analysis.
(§2) HGF was an active type HGF without substitution of the cleavage site of wild type HGF (KQLR/V) with the recognition sequence of Factor Xa (IEGR/V) and domain-deficiency and was a two-chain HGF capable of activating MET. tcHGF (Xa) was an HGF with substitution of the cleavage site of the HGF with the recognition sequence of Factor Xa (IEGR/V) and was cleaved into two chains by the Factor Xa treatment. It was also a two-chain HGF capable of activating MET. On the other hand, scHGF (Xa) was obtained by substituting the cleavage site of HGF with the recognition sequence of Factor Xa (IEGR/V).

HGF [1] = target: T2, HGF (Homo sapiens, UniProt P14210); test: Binding of HGF to immobilized HiP8-PEG11 by SPR (Biacore 3000); conditions: immobilized HiP-8-PEG11, read-out: KD of HGF binding to immobilized peptide
T2 construct: the full-length human HGF cDNA was cloned into pEHX1.1 plasmid; made in house; host or cells: Chinese hamster ovary (CHO) cells
Method: as §1, §2

[2] = system: MET activation/tyrosine phosphorylation; test: MET activation inhibition test in mice; format: in vivo; conditions: human HGF knocked-in SCID mice with PC-9 tumors, intravenous injection
Description: PC-9 human non-small cell lung cancer cells, which were to express human HGF, were transplanted subcutaneously to human HGF knocked-in SCID mice at 3×10^6 cells/site. On day 28 after transplantation, HiP8-PEG11 in PBS/phosphate buffered physiological saline solution was intravenously injected. The tumor tissue was removed, and MET activated/tyrosine-phosphorylated and a total MET amount in the tumor tissue were quantitatively determined by western blotting with the tissue extract. It is to be noted that the tumor tissue was homogenized in a RIPA buffer solution. Each sample containing […] of the protein was provided for SDS-PAGE and western blotting. Tyrosine-phosphorylated MET and a total MET amount were detected by western blotting.

PC-9 cells = test: Gefitinib resistance test; format: cell-based, human; conditions: gefitinib, HGF 20 ng/mL, 72 hours
Method: The resistance to gefitinib, an anticancer agent, was tested by seeding human lung cancer cells, PC-9 cells, on a 24-well plate and cultured for 24 hours on a RPMI medium containing 10% fetal bovine serum. The number of living cells was counted after non-addition or addition of gefitinib ([…]), HGF (20 ng/mL), or HiP8-PEG11 (1-1000 nM) and culturing for 72 hours.

[3] = system: phosphorylation of MET, Gab1, Akt, and Erk1/2; test: Western blotting analysis of HGF-induced phosphorylation in EHMES-1 cells; format: cell-based; conditions: 2 nM HGF, HiP-8 10, 100, 1,000, 10,000 nM
Method: EHMES-1 cells were cultured on a 6-well plate until they were from 80 to 90% confluent. After starvation for 6 hours, the cells were stimulated for 10 minutes with 2 nM hHGF in a culture medium in the absence of a cyclic peptide or in the presence of 10, 100, 1,000, or 10,000 nM cyclic peptide. The resulting cells were washed with PBS and lysed with 200 μl of lysis buffer 17 (product of R&D Systems) containing 1× Complete protease inhibitor cocktail (product of Roche). The protein concentration was measured by BCA assay (product of Thermo Fisher Scientific), and the protein was provided for 10% polyacrylamide gel SDS-PAGE. The protein was transferred onto a PVDF (polyvinylidene difluoride) membrane (Bio-Rad) and detected using a Can Get Signal (registered trademark) solution 1 containing a primary antibody (diluted at 1:2000), that is, MET (CST, 25H2), phospho-MET (Tyr1234/1235) (CST, D26), Akt (CST, 11E7), phospho-Akt (Ser473) (CST, D9E), Erk1/2 (CST, 137F5), phospho-Erk1/2 (Thr202/Tyr204) (CST, D13.14.4E), Gab1 (CST) and phospho-Gab1 (Tyr627) (CST, C32H2), and Can Get Signal (registered trademark) solution 2 (product of Toyobo) containing a horseradish peroxidase-bound secondary antibody (product of Dako) (diluted at 1:5000). […]

HGF [4] = target: T2, HGF; test: Binding of cyclic peptides to immobilized HGF by SPR (Biacore T200); conditions: immobilized biotinylated HGF, single cycle kinetics
Method: Binding of the cyclic peptides to immobilized HGF was measured using surface plasmon resonance (SPR) with Biacore T200 (product of GE Healthcare). Specifically, 2000 resonance units (RU) of biotinylated HGF was immobilized onto a CAP sensor chip by using a biotin capture kit (product of GE Healthcare).
Binding of the cyclic peptides was tested by injecting varying concentrations of the cyclic peptides into an HBS EP+buffer (10 mM HEPES (pH 7.4), 150 mM NaCl, 3 mM EDTA, and 0.05% (v/v) Surfactant P20) containing 0.1% DMSO at a flow rate of 30 μl/min. Binding of the cyclic peptides to HGF was analyzed by single cycle kinetics analysis.

tcHGF = target: T3, tcHGF (Homo sapiens, UniProt P14210); test: Tissue staining of frozen human lung cancer tissue; conditions: thirty six lung cancer tissue sections
T3 construct: subjected to extracellular processing (cleavage) by a specific protease and is to be converted into two-chain HGF; tissue US Biomax FLU401B; host or cells: frozen human lung cancer tissue sections
T3 sequence (P14210 32-494 limits assumed): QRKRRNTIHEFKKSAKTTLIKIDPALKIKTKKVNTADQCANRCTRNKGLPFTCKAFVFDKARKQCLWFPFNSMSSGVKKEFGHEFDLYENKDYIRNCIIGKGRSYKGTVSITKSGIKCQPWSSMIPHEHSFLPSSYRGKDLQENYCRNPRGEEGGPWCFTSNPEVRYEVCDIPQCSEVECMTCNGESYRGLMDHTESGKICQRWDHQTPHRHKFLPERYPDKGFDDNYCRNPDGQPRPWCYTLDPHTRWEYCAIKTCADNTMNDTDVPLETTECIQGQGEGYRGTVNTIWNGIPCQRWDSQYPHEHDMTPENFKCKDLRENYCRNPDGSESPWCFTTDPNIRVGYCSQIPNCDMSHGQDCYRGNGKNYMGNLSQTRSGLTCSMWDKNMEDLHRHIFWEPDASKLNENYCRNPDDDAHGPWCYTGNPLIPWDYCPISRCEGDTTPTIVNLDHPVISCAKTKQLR
T3 sequence (P14210 495-728 limits assumed): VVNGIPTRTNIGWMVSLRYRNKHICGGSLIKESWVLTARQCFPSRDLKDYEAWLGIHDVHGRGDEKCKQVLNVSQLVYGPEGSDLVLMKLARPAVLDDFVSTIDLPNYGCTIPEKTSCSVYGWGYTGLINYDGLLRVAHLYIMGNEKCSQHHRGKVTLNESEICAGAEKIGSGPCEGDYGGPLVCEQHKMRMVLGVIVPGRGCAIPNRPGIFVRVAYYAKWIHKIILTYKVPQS
Method: A frozen human lung cancer tissue array FLU401B was obtained from US Biomax. A tissue section was fixed in a 4% (w/v) paraformaldehyde PBS solution at room temperature for 30 minutes, treated for one hour with a 3% (w/v) bovine serum-derived albumin (BSA) PBS solution to prevent non-specific adsorption of a probe, and incubated overnight at 4° C. with HiP-8-PEG11-biotin, a primary antibody against human HGF (clone: t5A11, Umitsu M, Sakai K, Ogasawara S, Kaneko M, Asaki R, Tamura-Kawakami K, Kato Y, Matsumoto K, Takagi J. Probing conformational and functional states of human hepatocyte growth factor by a panel of monoclonal antibodies. Scientific Reports, 6: 33149, 2016), or phosphorylated MET (phospho Y1230/1234/Y1235, product of Abeam) diluted with Can Get Signal (registered trademark) antibody staining (product of Toyobo).
After washing three times with PBS, the probes were detected with streptavidin or goat anti-mouse IgG labeled with Alexa Fluor 488 and goat anti-rabbit IgG (product of Thermo Fisher Scientific) labeled with Alexa Fluor 594.
For semi-quantitative detection of antibody staining, stained region and mixed region in each tissue was quantitatively determined by ImageJ software (product of NIH). […]

HGF [5] = target: T2, HGF; test: Change in conformational structure of HGF: trypsin digestion; conditions: HGF 2.5 μM ± HiP-8 10 μM, room temperature, 30 minutes
Method: System of HGF (2.5 μM) with or without HiP-8 were digested with trypsin at room temperature for 30 minutes. A trypsin:HGF molar ratio was set at 0:1, 0.004:1, 0.012:1, 0.037:1, 0.11:1, 0.33:1, and 1:1. The product obtained by digestion was analyzed on from 5 to 20% SDS-PAGE under reducing conditions and stained with Coomassie Blue.
Target sequence in this assay (P14210 32-489 isoform P14210-3): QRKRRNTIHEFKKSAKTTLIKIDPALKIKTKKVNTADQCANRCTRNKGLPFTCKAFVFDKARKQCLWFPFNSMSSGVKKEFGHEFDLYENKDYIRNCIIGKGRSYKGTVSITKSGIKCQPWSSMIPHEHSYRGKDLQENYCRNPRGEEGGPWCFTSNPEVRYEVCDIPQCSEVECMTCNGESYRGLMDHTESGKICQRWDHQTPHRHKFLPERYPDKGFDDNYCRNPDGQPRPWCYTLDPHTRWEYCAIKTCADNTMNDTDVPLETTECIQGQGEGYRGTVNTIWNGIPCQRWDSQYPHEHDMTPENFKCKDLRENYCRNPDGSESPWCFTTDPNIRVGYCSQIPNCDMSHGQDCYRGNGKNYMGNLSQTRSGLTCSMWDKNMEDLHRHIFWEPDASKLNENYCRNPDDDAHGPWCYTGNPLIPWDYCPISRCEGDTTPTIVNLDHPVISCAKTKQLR
Target sequence in this assay (P14210 495-728): as the sequence (P14210 495-728 limits assumed) above

B16-F10 melanoma = test: Cell migration test; format: cell-based; conditions: transwell, 16 hours
Method: B16F10 cells (1×10^5 cells/insert) cultured in 200 μl of a RPMI1640 medium containing 0.5% FBS were seeded in the upper insert (transwell having a diameter of 8 mm, product of Corning) while 800 μl of a RPMI1640 medium with or without hHGF or HiP-8, or an anti-human HGF rabbit polyclonal antibody and supplemented with 0.5% FBS was added to the bottom chamber. The cells were cultured for 16 hours and fixed with 4% PFA solution in PBS. The cells attached to the bottom surface of the membrane were stained with 0.4% crystal violet solution in 20% methanol and the number of cells was counted.

HGF-MET interaction = target: T4, HGF-MET interaction (Homo sapiens, UniProt P14210); test: Competition of HiP-8 against binding between HGF or HGF fragment and MET ECD by SPR; conditions: immobilized MET external domain, varying HiP-8 concentrations
T4 construct: the full-length human HGF cDNA was cloned into pEHX1.1 plasmid; made in house; host or cells: Chinese hamster ovary (CHO) cells (HGF)
T4 sequence (P14210 32-489 isoform P14210-3): as the sequence (P14210 32-489 isoform P14210-3) above
T4 sequence (P14210 495-728): as the sequence (P14210 495-728 limits assumed) above
Method: Competition of HiP-8 against the binding between HGF or HGF fragment and MET ECD was measured by surface plasmon resonance (SPR) with Biacore 3000 (product of GE Flealthcare). His-labeled MET-ECD was supported on the surface of a nitrilotriacetic acid (NTA)-coated chip at 1000 RU. HiP-8 was mixed in advance at gradually increasing concentrations with 5 nM HGF, 30 nM NK4, or 30 nM SP fragment, and the resulting mixture was tested in 10 mM TBS (pH 7.4), 300 mM NaCl, and 0.05% Tween 20 (v/v) at a flow rate of 30 μl/min.

Row | Kd (HGF [1]) [nM] | kon (HGF [4]; read-out: Ka (association rate)) [M⁻¹ s⁻¹] | koff (HGF [4]; read-out: Kd (dissociation rate)) [s⁻¹] | SMILES | binding of scHGF(Xa) to immobilized peptide (scHGF(Xa)) | MET activation/tyrosine phosphorylation in tumor tissue [2] | effect on gefitinib resistance induced by HGF (PC-9 cells) | phosphorylation of MET, Gab1, Akt, and Erk1/2 induced by HGF [3] | correlation of staining intensity of tcHGF detected by peptide with pMET (tcHGF) | structural change of HGF (trypsin proteolysis of SP chain) (HGF [5]) | B16-F10 melanoma migration induced by HGF (B16-F10 melanoma) | mode of inhibition of HGF-MET interaction (HGF-MET interaction)
1 | 0.9 |  |  | CC(C)C[C@@H]1NC(=O)[C@@H]2CCCN2C(=O)[C@H](Cc2c[nH]c3ccccc23)NC(=O)CSC[C@@H](C(=O)NCCC(=O)NCCOCCOCCOCCOCCOCCOCCOCCOCCOCCOCCOCCOCCC(N)=O)NC(=O)[C@H](CCCNC(=N)N)NC(=O)[C@H](CCCCN)NC(=O)[C@H](CO)NC(=O)[C@H](Cc2ccc(O)cc2)NC(=O)[C@H](Cc2c[nH]c3ccccc23)NC(=O)[C@H](Cc2c[nH]c3ccccc23)NC(=O)[C@H](CCCCN)NC(=O)[C@H](CO)NC1=O [HiP-8-PEG11] ({CH2CO}-WPLSKWWYSKRC[βAla][PEG12]-NH2; thioether N-12) | very limited portion of the scHGF(Xa) bound | dose-dependent inhibition of MET activation/tyrosine phosphorylation |  |  |  |  |  | 
2 |  | 1.1e+06 | 0.0004 | CC(C)C[C@@H]1NC(=O)[C@@H]2CCCN2C(=O)[C@@H](Cc2c[nH]c3ccccc23)NC(=O)CSC[C@@H](C(=O)NCC(N)=O)NC(=O)[C@H](CCCNC(=N)N)NC(=O)[C@H](CCCCN)NC(=O)[C@H](CO)NC(=O)[C@H](Cc2ccc(O)cc2)NC(=O)[C@H](Cc2c[nH]c3ccccc23)NC(=O)[C@H](Cc2c[nH]c3ccccc23)NC(=O)[C@H](CCCCN)NC(=O)[C@H](CO)NC1=O [HiP-8, PLSKWWYSKR] |  |  | inhibited gefitinib resistance induced by HGF | inhibited phosphorylation of MET, Gab1, Akt, and Erk1/2 | strong correlation with the staining intensity of pMET | induced a change in the conformation of HGF | inhibited B16-F10 melanoma migration induced by HGF at a level equivalent to that of an anti-HGF antibody | uncompetitive inhibition of HGF-MET interaction
